Common to all, as to assay type: cell-based
The target in test [1] is T1, hGIPR (Homo sapiens, UniProt P48546).
T1 sequence (P48546 22-466): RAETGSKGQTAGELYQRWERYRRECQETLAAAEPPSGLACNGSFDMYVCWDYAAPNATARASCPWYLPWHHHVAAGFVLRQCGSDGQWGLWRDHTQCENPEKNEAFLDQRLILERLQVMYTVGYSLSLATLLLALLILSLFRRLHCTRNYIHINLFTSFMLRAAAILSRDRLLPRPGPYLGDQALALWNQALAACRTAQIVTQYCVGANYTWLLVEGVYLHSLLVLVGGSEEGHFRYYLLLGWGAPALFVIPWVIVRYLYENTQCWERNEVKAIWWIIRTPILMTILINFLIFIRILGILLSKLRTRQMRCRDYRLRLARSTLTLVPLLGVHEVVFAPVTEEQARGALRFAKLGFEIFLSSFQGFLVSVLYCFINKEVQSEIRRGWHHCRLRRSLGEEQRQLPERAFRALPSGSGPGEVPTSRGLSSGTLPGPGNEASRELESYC
Put plainly: Functional cAMP activity in the presence of 1% HSA. As to conditions: read-out: cAMP Rel EC50, hGIPR.

In test [2] the target is T2, hGLP-1R (Homo sapiens, UniProt P43220). Put plainly: Functional cAMP activity in the presence of 1% HSA. The conditions noted are these: read-out: cAMP Rel EC50, hGLP-1R.
T2 sequence (P43220 24-463): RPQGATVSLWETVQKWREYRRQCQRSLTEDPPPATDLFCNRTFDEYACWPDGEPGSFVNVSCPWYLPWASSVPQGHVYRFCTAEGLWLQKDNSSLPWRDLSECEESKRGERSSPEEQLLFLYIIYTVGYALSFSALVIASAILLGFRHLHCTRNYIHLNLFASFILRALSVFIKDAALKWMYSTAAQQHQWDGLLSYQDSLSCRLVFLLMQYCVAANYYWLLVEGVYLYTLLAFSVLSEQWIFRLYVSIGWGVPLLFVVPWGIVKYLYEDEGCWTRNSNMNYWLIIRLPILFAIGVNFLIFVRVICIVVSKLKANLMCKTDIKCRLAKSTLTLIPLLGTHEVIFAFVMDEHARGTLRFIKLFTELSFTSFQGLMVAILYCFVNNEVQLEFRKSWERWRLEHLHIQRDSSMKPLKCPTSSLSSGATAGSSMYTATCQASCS
The target of another test is human GcgR (Homo sapiens, UniProt P47871). Description: Functional cAMP activity in the presence of 1% HSA. As to conditions: read-out: cAMP Rel EC50, hGcgR.
Sequence of human GcgR (P47871 26-477): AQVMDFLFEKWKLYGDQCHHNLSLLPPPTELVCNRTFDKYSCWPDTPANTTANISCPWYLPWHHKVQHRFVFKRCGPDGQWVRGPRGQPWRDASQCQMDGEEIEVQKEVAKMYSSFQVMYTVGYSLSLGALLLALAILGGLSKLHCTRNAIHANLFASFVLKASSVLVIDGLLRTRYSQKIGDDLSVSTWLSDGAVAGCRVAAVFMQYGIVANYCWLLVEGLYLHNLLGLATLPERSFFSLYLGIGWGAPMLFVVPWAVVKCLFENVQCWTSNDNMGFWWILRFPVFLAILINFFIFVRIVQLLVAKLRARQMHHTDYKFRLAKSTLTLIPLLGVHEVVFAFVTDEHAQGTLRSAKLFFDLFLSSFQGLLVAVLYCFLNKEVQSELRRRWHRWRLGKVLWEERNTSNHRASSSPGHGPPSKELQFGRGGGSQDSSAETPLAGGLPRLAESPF
In test [3] the target is T1, hGIPR. Put plainly: Functional cAMP activation in the presence of 0.1% casein (no HSA). As to conditions: read-out: Relative cAMP EC50, hGIPR.
The target in test [4] is T2, hGLP-1R. The description is as above. As to conditions: read-out: Relative cAMP EC50, hGLP-1R.
Another test deals with hGcgR (Homo sapiens, UniProt P47871). The description is as above. As to conditions: read-out: Relative cAMP EC50, hGcgR.
Sequence of hGcgR (P47871 26-477): as above
[5] abbreviates: in the presence of 0.1% casein (no HSA), geometric mean.
Setting [6] is: HEK-293 clonal cell line, 1% HSA, geometric mean of relative EC50.
[7] abbreviates: in the presence of 0.1% casein (no HSA), geometric mean of relative EC50.
The mark [8] stands for this setting: 0.1% casein, no HSA, geometric mean.

Like-named read-outs stand apart in the source and are kept apart here. Starred links: 1 amine or outer side, 2 acyl side, 3 side chain; linkers in the order of their positions; H or OH if unused. Non-standard residues stand in square brackets, D forms with d. Residues, ends and D or L forms follow the SMILES beside them. Groups on a side chain read outwards from the residue. No end group written: not given here. *: point of attachment. C18 diacid = O=C(O)CCCCCCCCCCCCCCCCC(=O)*; αMePhe(2-F) = C[C@](N)(Cc1ccccc1F)C(=O)O; γGlu = O=C(O)[C@H](CCC(=O)[*:2])N[*:1]; αMe4Pal = C[C@](N)(Cc1ccncc1)C(=O)O; αMeY = C[C@](N)(Cc1ccc(O)cc1)C(=O)O; 3Pal = N[C@@H](Cc1cccnc1)C(=O)O; 4Pal = N[C@@H](Cc1ccncc1)C(=O)O; αMeL = CC(C)C[C@](C)(N)C(=O)O; αMeS = C[C@](N)(CO)C(=O)O; Orn = NCCC[C@H](N)C(=O)O; AEEA = NCCOCCOCC(=O)O; Aib = CC(C)(N)C(=O)O

Experimental findings from patent US20240270821A1, “GIP/GLP1/GCG TRI-RECEPTOR AGONISTS AND USES THEREOF” (priority 2023, published 2024) are described below.

A word on the EC50: it is the midpoint of the concentration-response curve.
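Wherever Relative cAMP EC50, hGIPR is given: intracellular cAMP rise after 30 min at 37 °C read by HTRF against a standard curve, scaled between buffer alone (0%) and top control ligand concentration (100%), four-parameter fit.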
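Wherever Relative cAMP EC50, hGLP-1R is given: intracellular cAMP rise after 30 min at 37 °C read by HTRF, normalized between buffer only (0%) and maximal control ligand (100%), four-parameter variable-slope fit.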
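Wherever Relative cAMP EC50, hGcgR is given: intracellular cAMP rise after 30 min at 37 °C, read by HTRF against a cAMP standard curve, scaled from buffer only (0%) to maximal control ligand response (100%).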

As to “H-Y[Aib]QGT[αMePhe(2-F)]TSD[4Pal]SI[αMeL]LD[Orn]K([AEEA-γGlu-C18 diacid])AQ[αMe4Pal]EFI[dE][αMeY]LIEGGPSSGAPPPSGS-NH2 [Example 640]”, the EC50 on hGIPR [1] amounted to 0.591 nM; at hGLP-1R [2] it was 27.8 nM; at human GcgR it was 730 nM; at hGIPR [3] it was 0.00696 nM; at hGLP-1R [4], 0.288 nM; on hGcgR it was 9.5 nM.
Take “H-Y[Aib]QGTFTSD[4Pal]SK[αMeL]LDKK([AEEA-γGlu-C18 diacid])AQ[Aib]AFIE[αMe4Pal]LIE[Aib]GPSSGAPPPSGS-NH2 [Example 914]”: the 50% effective concentration (EC50) on hGIPR [1] came to 5.94 nM; on hGLP-1R [2], 91.7 nM; at human GcgR, 983 nM; at hGIPR [3] (setting [5]), 0.0582 nM; at hGLP-1R [4] (setting [5]), 0.888 nM; on hGcgR (setting [5]) it was 10.6 nM.
Consider “H-Y[Aib]QGT[αMePhe(2-F)]TSD[4Pal]SI[αMeL]LD[Orn]K([AEEA-γGlu-C18 diacid])AQ[αMe4Pal]EFI[dE][αMeY]LQEGGPSSGAPPPSGS-NH2 [Example 643]”, for which the EC50 at hGIPR [1] turned out to be 1.61 nM; at hGLP-1R [2] it was 60.1 nM; on human GcgR it was 1170 nM; at hGIPR [3], 0.0223 nM; at hGLP-1R [4], 0.741 nM; on hGcgR, 16 nM.
“H-Y[Aib]QGTFTSD[4Pal]SK[αMeL]LDKK([AEEA-γGlu-C18 diacid])AQ[Aib]AFIEYLIE[dA]GESSGEPPPSGS-NH2 [Example 284]”: the EC50 on hGIPR [1] stood at 59.8 nM; at hGLP-1R [2], 271 nM; at human GcgR, 1530 nM; on hGIPR [3] (setting [5]) it was 0.347 nM; at hGLP-1R [4] (setting [5]), 1.54 nM; at hGcgR (setting [5]) it was 9.21 nM.
In the case of “Y[Aib]QGTFTSD[4Pal]SR[αMeL]LDKK([γGlu-γGlu-C18 diacid])AQ[αMe4Pal]AFIE[αMe4Pal]LIEGGPSSGAPPPSGSEE-NH2 [Example 959]”, the EC50 was found to be 24.5 nM at hGIPR [1]; 503 nM at hGLP-1R [2]; 316 nM at human GcgR; 0.217 nM on hGIPR [3] (setting [5]); 5.06 nM at hGLP-1R [4] (setting [5]); 2.61 nM at hGcgR (setting [5]).
On to “H-Y[Aib]QGTFTSD[4Pal]SQ[αMeL]LDKK([Glu-γGlu-C18 diacid])AQ[αMe4Pal]AFIEYLIAGGPSSGAPPPSGSEE-NH2 [Example 1030]”, for which the EC50 was found to be 21 nM at hGIPR [1]; 385 nM on hGLP-1R [2]; 1830 nM at human GcgR; 0.122 nM on hGIPR [3] (setting [5]); 1.72 nM at hGLP-1R [4] (setting [5]); 9.42 nM on hGcgR (setting [5]).
`CC[C@H](C)[C@H](NC(=O)[C@H](Cc1ccccc1)NC(=O)[C@H](C)NC(=O)C(C)(C)NC(=O)[C@H](CCC(N)=O)NC(=O)[C@H](C)NC(=O)[C@H](CCCCNC(=O)COCCOCCNC(=O)CC[C@H](NC(=O)CCCCCCCCCCCCCCCCC(=O)O)C(=O)O)NC(=O)[C@H](CCCCN)NC(=O)[C@H](CC(=O)O)NC(=O)[C@H](CC(C)C)NC(=O)[C@H](CC(C)C)NC(=O)[C@@H](NC(=O)[C@](C)(CO)NC(=O)[C@H](Cc1cccnc1)NC(=O)[C@H](CC(=O)O)NC(=O)[C@H](CO)NC(=O)[C@@H](NC(=O)[C@](C)(Cc1ccccc1F)NC(=O)[C@@H](NC(=O)CNC(=O)[C@H](CCC(N)=O)NC(=O)C(C)(C)NC(=O)[C@@H](N)Cc1ccc(O)cc1)[C@@H](C)O)[C@@H](C)O)[C@@H](C)CC)C(=O)N[C@@H](CCC(=O)O)C(=O)N[C@@H](Cc1ccc(O)cc1)C(=O)N[C@@H](CC(C)C)C(=O)N[C@@H](CCC(=O)O)C(=O)N[C@@H](CCC(=O)O)C(=O)NCC(=O)NCC(=O)N1CCC[C@H]1C(=O)N[C@@H](CO)C(=O)N[C@@H](CO)C(=O)NCC(=O)N[C@@H](C)C(=O)N1CCC[C@H]1C(=O)N1CCC[C@H]1C(=O)N1CCC[C@H]1C(=O)N[C@@H](CCC(=O)O)C(N)=O` [Example 465] (H-Y[Aib]QGT[αMePhe(2-F)]TSD[3Pal][αMeS]ILLDKK([AEEA-γGlu-C18 diacid])AQ[Aib]AFIEYLEEGGPSSGAPPPE-NH2): the EC50 at hGIPR [1] turned out to be 44.6 nM; on hGLP-1R [2], 56.3 nM; at human GcgR, 233 nM; at hGIPR [3], 0.148 nM; at hGLP-1R [4], 0.575 nM; at hGcgR, 1.5 nM.
Take “H-Y[Aib]QGT[αMePhe(2-F)]TSD[4Pal]SI[αMeL]LDKK([γGlu-γGlu-C18 diacid])AQ[Aib]AFIEYLEEGGPSSGEPPPSGSEE-NH2 [Example 630]”: the EC50 on hGIPR [1] (setting [6]) is 2.96 nM; at hGLP-1R [2] (setting [6]), 74.5 nM; on human GcgR (setting [6]), 872 nM; at hGIPR [3] (setting [7]), 0.0233 nM; at hGLP-1R [4] (setting [7]), 0.762 nM; on hGcgR (setting [7]) it was 8.07 nM.
Take `CC[C@H](C)[C@H](NC(=O)[C@H](Cc1ccccc1)NC(=O)[C@H](CCCN)NC(=O)C(C)(C)NC(=O)[C@H](CCC(N)=O)NC(=O)[C@H](C)NC(=O)[C@H](CCCCNC(=O)CC[C@H](NC(=O)CC[C@H](NC(=O)CCCCCCCCCCCCCCCCC(=O)O)C(=O)O)C(=O)O)NC(=O)[C@H](CCCN)NC(=O)[C@H](CC(=O)O)NC(=O)[C@H](CC(C)C)NC(=O)[C@](C)(CC(C)C)NC(=O)[C@@H](NC(=O)[C@](C)(CO)NC(=O)[C@H](Cc1ccncc1)NC(=O)[C@H](CC(=O)O)NC(=O)[C@H](CO)NC(=O)[C@@H](NC(=O)[C@](C)(Cc1ccccc1F)NC(=O)[C@@H](NC(=O)CNC(=O)[C@H](CCC(N)=O)NC(=O)C(C)(C)NC(=O)[C@@H](N)Cc1ccc(O)cc1)[C@@H](C)O)[C@@H](C)O)[C@@H](C)CC)C(=O)N[C@H](CCC(=O)O)C(=O)N[C@@](C)(Cc1ccc(O)cc1)C(=O)N[C@@H](CC(C)C)C(=O)N[C@@H](C)C(=O)N[C@@H](CCC(=O)O)C(=O)NCC(=O)NCC(=O)N1CCC[C@H]1C(=O)N[C@@H](CO)C(=O)N[C@@H](CO)C(=O)NCC(=O)N[C@@H](CCC(=O)O)C(=O)N1CCC[C@H]1C(=O)N1CCC[C@H]1C(=O)N1CCC[C@H]1C(=O)N[C@@H](CCC(=O)O)C(N)=O` [Example 437] (H-Y[Aib]QGT[αMePhe(2-F)]TSD[4Pal][αMeS]I[αMeL]LD[Orn]K([γGlu-γGlu-C18 diacid])AQ[Aib][Orn]FI[dE][αMeY]LAEGGPSSGEPPPE-NH2): the EC50 was determined as 16.9 nM on hGIPR [1]; 26.9 nM on hGLP-1R [2]; 188 nM on human GcgR; 0.0872 nM at hGIPR [3]; 0.421 nM at hGLP-1R [4]; 1.76 nM at hGcgR.
In the case of “H-Y[Aib]QGT[αMePhe(2-F)]TSD[4Pal][αMeS]I[αMeL]LD[Orn]K([AEEA-AEEA-γGlu-C18 diacid])AQ[αMe4Pal]EFI[dE][αMeY]LIEGGPSSGEPPPSGS-NH2 [Example 1208]”, the EC50 at hGIPR [1] was found to be 0.786 nM; at hGLP-1R [2] it was 44.8 nM; on human GcgR, 451 nM; on hGIPR [3] (setting [8]) it was 0.00907 nM; on hGLP-1R [4] (setting [8]), 0.526 nM; at hGcgR (setting [8]), 3.52 nM.
As for “H-Y[Aib]QGTFTSD[4Pal]SQ[αMeL]LD[Orn]K([γGlu-γGlu-C18 diacid])AQ[αMe4Pal]AFIEYLIAGGPSSGEPPPSGSE [Example 977]”, the concentration for a half-maximal effect (EC50) at hGIPR [1] was determined as 23 nM; on hGLP-1R [2], 159 nM; on human GcgR, 839 nM; on hGIPR [3] (setting [5]), 0.189 nM; on hGLP-1R [4] (setting [5]) it was 1.1 nM; on hGcgR (setting [5]), 7.18 nM.
